From ChEMBL document CHEMBL5608212, “N-acylbenzimidazoles as selective Acylators of the catalytic cystein of the coronavirus 3CL protease” (Eur J Med Chem, 2024)
Values joined by “and” are separate entries in the source; they are usually repeats but may differ in a detail not shown here. Identical values can stand only once.

Experiments:
[1] = biological target: Replicase polyprotein 1ab (Severe acute respiratory syndrome coronavirus 2, UniProt P0DTD1); assay: Inhibition of SARS-CoV-2 3CLpro using Dabcyl-KTSAVLQSGFRKM-Glu(Edans) as substrate preincubated for 1 hrs in presence of 2 mM GSH followed by substrate addition and measured after 30 mins by FRET assay
[2] = Inhibition of C-terminal 6-His tagged recombinant SARS-CoV 3CLpro (Ser1 to Gln306 residues) extracted from Escherichia coli using Dabcyl-KTSAVLQSGFRKM-Glu(Edans) as substrate preincubated 1 hr in presence of 2 mM GSH followed by substrate addition and measured after 30 mins by FRET assay; set-up: species or system Severe acute respiratory syndrome-related coronavirus
[3] = biological target: Replicase polyprotein 1ab (Human coronavirus 229E, UniProt P0C6X1); assay: Inhibition of hCoV-229E 3CLpro using Dabcyl-KTSAVLQSGFRKM-Glu(Edans) as substrate preincubated 1 hr in presence of 2 mM GSH followed by substrate addition and measured after 30 mins by FRET assay
Sequence of Replicase polyprotein 1ab (Human coronavirus 229E, UniProt P0C6X1) (P0C6X1 2966-3267 limits assumed): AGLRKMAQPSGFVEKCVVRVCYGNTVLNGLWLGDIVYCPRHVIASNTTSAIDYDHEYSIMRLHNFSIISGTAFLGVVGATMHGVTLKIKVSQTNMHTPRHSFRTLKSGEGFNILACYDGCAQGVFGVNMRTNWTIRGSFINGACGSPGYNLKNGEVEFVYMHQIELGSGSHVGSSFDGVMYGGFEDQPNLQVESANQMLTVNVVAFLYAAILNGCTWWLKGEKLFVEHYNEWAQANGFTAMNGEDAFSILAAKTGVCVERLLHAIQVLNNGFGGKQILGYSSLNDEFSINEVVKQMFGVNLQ

[4] = Inhibition of MERS-CoV 3CLpro using Dabcyl-KTSAVLQSGFRKM-Glu(Edans) as substrate preincubated 1 hr in presence of 2 mM GSH followed by substrate addition and measured after 30 mins by FRET assay; set-up: species or system Middle East respiratory syndrome-related coronavirus
[5] = biological target: T1, Calpain-1 catalytic subunit (Homo sapiens, UniProt P07384); assay: Inhibition of human calpain 1 using (DABCYL)-TPLKSPPPSPR-(EDANS) as substrate incubated for 30 mins in presence of calcium ions and GSH and measured after 30 mins by fluorescence based assay
T1 sequence (P07384 whole entry): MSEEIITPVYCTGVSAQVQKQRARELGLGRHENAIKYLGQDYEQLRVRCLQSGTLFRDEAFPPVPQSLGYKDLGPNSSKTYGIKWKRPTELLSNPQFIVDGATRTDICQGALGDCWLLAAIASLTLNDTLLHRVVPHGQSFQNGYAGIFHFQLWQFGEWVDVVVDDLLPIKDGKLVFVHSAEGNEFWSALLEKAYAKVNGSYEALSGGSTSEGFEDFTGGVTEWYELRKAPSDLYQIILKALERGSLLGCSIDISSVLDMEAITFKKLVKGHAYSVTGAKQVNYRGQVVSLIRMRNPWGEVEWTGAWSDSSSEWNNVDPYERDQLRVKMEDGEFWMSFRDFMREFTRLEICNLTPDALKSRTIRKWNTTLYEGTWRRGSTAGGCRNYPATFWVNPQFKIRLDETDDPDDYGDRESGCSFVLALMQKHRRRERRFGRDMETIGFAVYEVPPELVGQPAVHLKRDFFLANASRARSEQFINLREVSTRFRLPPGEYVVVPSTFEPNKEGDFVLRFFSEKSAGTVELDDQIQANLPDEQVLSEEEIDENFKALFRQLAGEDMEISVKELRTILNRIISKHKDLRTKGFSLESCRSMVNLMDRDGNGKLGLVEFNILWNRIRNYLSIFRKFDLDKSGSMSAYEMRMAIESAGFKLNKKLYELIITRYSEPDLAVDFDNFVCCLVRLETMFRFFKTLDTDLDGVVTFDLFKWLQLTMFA

[6] = Inhibition of human cathepsin 1 using QXL520/HiLyteFlour 488 as substrate preincubated for 60 mins and measured after 30 mins by fluorescence based assay
Human coronavirus 229E = assay: Antiviral activity against HCoV-229E expressing renilla luciferase reporter gene infected in human Huh-7 cells pre-infected […] for 1 hr followed by compound addition and measured after 6 hrs by luciferase based assay; type: functional, organism-based
[7] = biological target: Replicase polyprotein 1ab (Severe acute respiratory syndrome coronavirus 2) (UniProt P0DTD1); assay: Inhibition of SARS-CoV-2 3CLpro using Dabcyl-KTSAVLQSGFRKM-Glu(Edans) as substrate at 100 uM preincubated for 1 hrs in presence of 2 mM GSH followed by substrate addition and measured after 30 mins by FRET assay relative to control; conditions: time 1.5 hrs
[8] = biological target: Replicase polyprotein 1ab (Severe acute respiratory syndrome coronavirus 2) (UniProt P0DTD1); assay: Binding affinity to SARS-CoV-2 3CLpro assessed as change in melting temperature at 40 uM measured after 30 mins by SYPRO Orange staining based thermal shift assay

Row | SMILES | pIC50 [1] | IC50 ([1]; read-out: IC50) | further results
1 | CSc1nc2ccccc2n1Cc1ccc(C)cc1 | < 4 | > 100000 nM | 
2 | CSc1nc2ccccc2n1C(=O)c1ccc(C(C)(C)C)cc1 | < 4 | > 100000 nM | 
3 | Cc1ccc(C(=O)n2c(N)nc3ccccc32)cc1 | < 4 | > 100000 nM | 
4 | CSc1nc2ccccc2n1C(=O)c1ccc(C)c(F)c1 |  | 90 nM | IC50 [2]: 340 nM; pIC50 [2]: 6.47; IC50 [3]: 350 nM; IC50 [4]: 1300 nM; pIC50 [4]: 5.89; IC50 [5]: > 100000 nM; IC50 [6]: > 100000 nM; EC50 (Human coronavirus 229E): 35600 nM
5 | CSc1nc2ccccc2n1C(=O)c1ccc(C(F)(F)F)cc1 |  | 2720 nM | 
6 | Cc1ccc(C(=O)n2c(CC#N)nc3ccccc32)cc1 |  |  | inhibition [7]: 68%
7 | COc1cc2nc(SC)n(C(=O)c3ccc(C)cc3)c2cc1OC |  | 6800 nM | 
8 | CSc1nc2ccccc2n1C(=O)c1ccc2c(c1)OCCO2 |  | 1000 nM | 
9 | CSc1nc2ccc(C#N)cc2n1C(=O)c1ccc(C)c(F)c1 |  | 6300 nM | 
10 | CCc1ccc(C(=O)n2c(SC)nc3ccccc32)cc1 |  | 1800 nM | 
11 | CSc1nc2ccccc2n1C(=O)C1CC1 |  |  | inhibition [7]: 61%
12 | COc1ccc(C(=O)n2c(SC)nc3ccccc32)cc1 |  | 3000 nM | 
13 | CSc1nc2cc(C)c(C)cc2n1C(=O)c1ccc(C)cc1 |  |  | inhibition [7]: 68%
14 | CSc1nc2ccccc2n1C(=O)c1ccc(C)c(Cl)c1 |  | 150 nM | 
15 | CSc1nc2ccccc2n1C(=O)c1ccc(Cl)cc1 |  | 1100 nM | 
16 | CSc1nc2cc3c(cc2n1C(=O)c1ccc(C)c(F)c1)OCCO3 |  | 270 nM | 
17 | CCSc1nc2ccccc2n1C(=O)c1ccc(C)cc1 |  | 3760 nM | 
18 | Cc1ccc(C(=O)n2ncc3ccccc32)cc1 | < 4 | > 100000 nM | 
19 | C=CCSc1nc2ccccc2n1C(=O)c1ccc(C)cc1 |  | 5440 nM | 
20 | CSc1nc2cc(Cl)ccc2n1C(=O)c1ccc(C)cc1 |  | 550 nM | 

Row | SMILES | pIC50 [1] | IC50 ([1]; read-out: IC50) | further results
21 | COc1cc(C(=O)n2c(SC)nc3ccccc32)ccc1C |  | 660 nM | 
22 | CSc1nc2ccccc2n1C(=O)c1ccc(F)cc1 |  | 3800 nM | 
23 | CSc1nc2cc(C#N)ccc2n1C(=O)c1ccc(C)c(F)c1 |  | 890 nM | 
24 | Cc1ccc(C(=O)n2c(-c3ccccc3)nc3ccccc32)cc1 | < 4 | > 100000 nM | 
25 | CSc1nc2ccccc2n1C(=O)NCc1ccc(C)cc1 | < 4 | > 100000 nM | 
26 | COc1ccc(C(=O)n2c(SC)nc3ccccc32)cc1OC |  | 4000 nM | 
27 | CSc1nc2ccccc2n1C(=O)c1ccc(C)cc1 |  | 390 nM | ΔTm [8]: 4.2 °C; IC50 [2]: 1600 nM; pIC50 [2]: 5.81; IC50 [3]: 1900 nM; IC50 [4]: 5000 nM; pIC50 [4]: 5.3; IC50 [5]: > 100000 nM; IC50 [6]: > 100000 nM
28 | CSc1nc2ccccc2n1C(=O)c1cccc(C)c1 |  | 2100 nM | 
29 | Cc1ccc(C(=O)n2c(C)nc3cc4c(cc32)OCCO4)cc1 |  | 7500 nM | 
30 | CC(C)C[C@H](NC(=O)OCc1ccccc1)C(=O)N[C@@H](CC1CCNC1=O)C(O)S(=O)(=O)O (stereo not given in full) |  |  | IC50 [2]: 50 nM; pIC50 [2]: 7.33; IC50 [4]: 340 nM; pIC50 [4]: 6.47; IC50 [6]: 1 nM
31 | CSc1nc2ccc(F)cc2n1C(=O)c1ccc(C)cc1 |  | 200 nM | 
32 | CSc1nc2ccccc2n1C(=O)c1ccncc1 | < 4 | > 100000 nM | 
33 | CSc1nc2ccccc2n1C(=O)c1ccccc1C | < 4 | > 100000 nM | 
34 | COc1nc2ccccc2n1C(=O)c1ccc(C)cc1 | < 4 | > 100000 nM | 
35 | CCc1nc2ccccc2n1C(=O)c1ccc(C)cc1 |  | 6550 nM | 
36 | Cc1ccc(C(=O)n2c(C)nc3ccccc32)cc1 |  | 3430 nM | 
37 | CSc1nc2cc(F)ccc2n1C(=O)c1ccc(C)cc1 |  | 270 nM | 
38 | CSc1nc2cc3c(cc2n1C(=O)c1ccc(C)c(F)c1)OCO3 |  | 70 nM | pIC50 [2]: 6.49; IC50 [3]: 320 nM; IC50 [4]: 2900 nM; pIC50 [4]: 5.53; EC50 (Human coronavirus 229E): 29200 nM
39 | CSc1nc2ccccc2n1C(=O)c1ccc(C)c(C)c1 |  | 1000 nM | 
40 | CSc1nc2ccccc2n1C(=O)c1ccsc1 |  | 2400 nM | 

Row | SMILES | pIC50 [1] | IC50 ([1]; read-out: IC50) | further results
41 | Cc1ccc(C(=O)n2c(C)nc3ccccc32)cc1F |  | 150 nM | IC50 [2]: 210 nM; pIC50 [2]: 6.67; IC50 [3]: 2600 nM; IC50 [4]: 2800 nM; pIC50 [4]: 5.56; IC50 [5]: > 100000 nM; IC50 [6]: > 100000 nM; EC50 (Human coronavirus 229E): 25400 nM
42 | Cc1ccc(C(=O)n2c(Cl)nc3ccccc32)cc1 |  |  | inhibition [7]: 61%
43 | Cc1ccc(C(=O)n2cnc3ccccc32)cc1 |  | 6700 nM and 6660 nM | 
44 | CSc1nc2ccccc2n1C(=O)Cc1ccccc1 | < 4 | > 100000 nM | 
45 | Cc1ccc(C(=O)n2ccc3ccccc32)cc1 | < 4 | > 100000 nM | 
46 | CSc1nc2ccc(F)cc2n1C(=O)c1ccc(C)c(F)c1 |  | 260 nM | 
47 | CSc1nc2cc(F)ccc2n1C(=O)c1ccc(C)c(F)c1 |  | 100 nM | 
48 | Cc1ccc(C(=O)n2nnc3ccccc32)cc1 | < 4 | > 100000 nM | 
49 | CSc1nc2ccc(Cl)cc2n1C(=O)c1ccc(C)cc1 |  | 890 nM | IC50 ([1]; read-out: pIC50 (converted)): 269 nM
50 | CSc1nc2ccccc2n1C(=O)c1ccccc1 |  | 2500 nM | 
51 | Cc1ccc(C(=O)n2c(S)nc3ccccc32)cc1 | < 4 | > 100000 nM | 
52 | CSc1nc2ccccc2n1C(=O)c1cccc(C(F)(F)F)c1 |  | 33700 nM | 
53 | Cc1ccc(C(=O)n2c(C#N)nc3ccccc32)cc1 | < 4 | > 100000 nM | 
54 | CSc1nc2ccccc2n1C(=O)Oc1ccccc1 | < 4 | > 100000 nM | 
55 | CSc1nc2ccccc2n1S(=O)(=O)c1ccc(C)cc1 | < 4 | > 100000 nM | 
56 | Cc1ccc(C(=O)n2c(C(F)(F)F)nc3ccccc32)cc1 |  | 17000 nM | 
57 | CSc1nc2ccccc2n1C(C)=O | < 4 | > 100000 nM | 
58 | CSc1nc2ccccc2n1C(=O)c1ccccc1C(F)(F)F | < 4 | > 100000 nM | 
